From patent publication US20260256763A1, “Aromatic Amide Derivative, And Preparation Method Therefor And Use Thereof” (Zhejiang Hisun Pharmaceutical Co., Ltd., priority 2023, published 2026)

Key:
[1] = Pharmacokinetic testing in mice; assay type: in vivo; settings: male, mouse, ICR mice, plasma
Protocol: ICR mice were taken as test animals, and intragastrically administered with a control compound AMG650 and compounds 1, 18 and 29 of the present invention, and then drug concentrations in plasma at different moments were determined by an LC/MS/MS method, so as to study pharmacokinetic characteristics of the compounds of the present invention in the mice.
Control compound AMG650, and Compounds 1, 18 and 29.
ICR mice, male, 27.3-30.3 g, purchased from Vital River Laboratory Animal Technology Co., Ltd.
A proper amount of to-be-tested compound was weighed, proper amounts of DMA (N,N-dimethylacetamide), CrEL (polyoxyethylene 35 castor oil) and 5% GS (5% glucose injection) were added in sequence, and the obtained system was evenly mixed by ultrasonic vortex to prepare a 1 mg/mL preparation, wherein DMA, CrEL and 5% GS=10:10:80 (v:v:v).
ICR mice in each to-be-tested compound injection group (9 mice in each group) were fasted overnight and then intragastrically administered with the compound (PO, an administration dosage of the compound was 10 mg/kg and an administration volume of the compound was 10 mL/kg), and were fed 4 hours after administration.
0.25 hours, 0.5 hours, 1 hour, 2 hours, 4 hours, 8 hours, 10 hours and 24 hours before and after administration, about […] of blood was collected through an orbit, and a complete blood sample was placed in an EDTA-K2-containing anticoagulation tube. The collected blood sample was placed on ice, and plasma was centrifugally separated (centrifugation conditions: 1500 g, 10 minutes). The collected plasma was stored at −40~−20° C. before analysis.
A content of the to-be-tested compound in the plasma of the mice after intragastric administration was determined by LC-MS/MS.

[2] = tested on: OVCAR-3 human ovarian adenocarcinoma tumor fragment xenograft; assay: Pharmacodynamic testing in OVCAR-3 tumor fragment xenograft model; assay type: in vivo, BALB/c nude mice; settings: 16 days after administration; for Relative tumor volume (x ± S) / Tumor volume (x ± S): mean ± standard error; for Tumor volume (x ± S): in mm³
Protocol: An anti-tumor effect of Compound 1 of the present invention in a BALB/c nude mouse animal model with subcutaneous OVCAR-3 human ovarian adenocarcinoma tumor fragment xenograft was evaluated.
BALB/c nude mice, female, 6-7 weeks old, purchased from Jiangsu Gempharmatech Biotechnology Co., Ltd.
Mice in a solvent control group were given DMA:CrEL:5% GS=10:10:80 (v:v:v).
AMG650: a proper amount of AMG-650 was weighed, proper amounts of DMA, CrEL and 5% GS were added in sequence, and the obtained system was evenly mixed by ultrasonic vortex to prepare 0.8 mg/mL and 0.4 mg/mL preparations respectively, wherein DMA, CrEL and 5% GS=10:10:80 (v:v:v).
Compound 1: a proper amount of Compound 1 was weighed, proper amounts of DMA, CrEL and 5% GS were added in sequence, and the obtained system was evenly mixed by ultrasonic vortex to prepare 0.8 mg/mL and 0.4 mg/mL preparations respectively, wherein DMA, CrEL and 5% GS=10:10:80 (v:v:v).
An appropriate OVCAR-3 tumor-bearing animal was selected, a 1 mm×1 mm×1 mm OVCAR-3 tumor fragment was acquired aseptically and placed into normal saline for later use, which was used for subcutaneous tumor inoculation in a right side of back of the BALB/c nude mice.
About 1 mm×1 mm×1 mm OVCAR-3 tumor fragment was subcutaneously inoculated in the right side of back of the female BALB/c nude mice. When an average tumor volume reached about 100-250 mm^3, the mice were randomly grouped according to the tumor size, with 6 mice in each group.
Animals in each group were given the test compound once per day according to an animal weight at a fixed time every day by oral administration (po), the animals started to be administered with the test compound for the first time on the day of grouping for 22 consecutive days, and the animal weight was recorded every day. • The 1st group (G1) was a solvent control group; • The 2nd group (G2) and the 3rd group (G3) were orally administered with AMG-650 at administration dosages of 8 mg/kg and 4 mg/kg respectively once per day (QD); and • The 4th group (G4) and the 5th group (G5) were orally administered with Compound 1 at administration dosages of 8 mg/kg and 4 mg/kg respectively once per day (QD).
Tumor formation at an inoculation site of the animals in each group was observed, and a tumor volume was measured twice per week, and calculated according to the following formula: • a tumor volume (TV), a relative tumor volume (RTV), a relative tumor proliferation rate (T/C) and a relative tumor inhibition rate (TGI) were calculated according to the following formulas:
TV (tumor volume)=½×a×b^2, wherein a and b respectively represented a tumor length and a tumor width; (1)
RTV (relative tumor volume)=Vt/V0, wherein V0 was a tumor volume measured at the time of grouping, and Vt was a tumor volume in each measurement; (2)
T/C (%)=TRTV/CRTV×100%, wherein TRTV was RTV of a treatment group, and CRTV was RTV of a solvent control group; and (3)
TGI %=(1−T/C)×100%, wherein T and C were relative tumor volumes of the treatment group and the solvent control group at a specific time point respectively. (4)

[3] = tested on: OVCAR-3 cells; assay: Inhibition on OVCAR-3 cell proliferation (CellTiter-Glo); assay type: cell-based; settings: Homo sapiens, OVCAR-3 cells (TP53 R248Q mutation), 72 hours
Protocol: Influences of the compounds of the present invention on OVCAR-3 cell proliferation were determined by the following method. OVCAR-3 cells (containing TP53 R248Q mutation) were purchased from the Cell Bank of Shanghai Institute of Biochemistry and Cell Biology, Chinese Academy of Sciences, and cultured in an RPMI 1640 culture medium containing […], 100 U penicillin and 100 μg/mL streptomycin. A cell viability was determined by a CellTiter-Glo® Luminescent Cell Viability Assay kit (Promega, article number G7573).
An experimental method was operated according to steps in the instruction of the kit, which was briefly described as follows: a test compound was dissolved in DMSO first to prepare a 10 mM stock solution, then the stock solution was diluted with the above RPMI 1640 culture medium to prepare a test sample, and a final concentration of the compound was in a range of 1000 nM-0.015 nM. Cells in a logarithmic growth phase were inoculated into a 96-well cell culture plate at a density of 1000 cells per well, cultured in a 5% CO2 incubator at 37° C. overnight, and then the test compound was added to continuously culture for 72 hours. After the culture was ended, 50 μL of CellTiter-Glo detection solution was added to each well, the plates were shaken for 5 minutes, and then allowed to stand for 10 minutes, and subsequently, a luminous value of each well of sample was read by a microplate reader in a Luminescence mode. By comparing with a numerical value of a control group (0.3% DMSO), a percentage inhibition rate of the compound at each concentration was calculated, and then nonlinear regression analysis was carried out based on concentration logarithm-inhibition rate of the compound in GraphPad Prism 5 software, so as to obtain an IC50 value of the compound in inhibition on cell proliferation, which are shown in Table 1.

Structure (SMILES): CCS(=O)(=O)Nc1ccc(C(=O)Nc2cc3c(c(N4CCC(F)(F)CC4)c2)OCC3)c(N2CCC3(CC2)CC3)c1 [Example 1, N-(7-(4,4-difluoropiperidin-1-yl)-2,3-dihydrobenzofuran-5-yl)-4-(ethylsulfonamido)-2-(6-azaspiro[2.5]octan-6-yl)benzamide]
- half-life ([1]; 10 mg/kg, oral administration (10 mg/mL), read-out: Half-life period T½ (converted)): 7.36 h
- Cmax ([1]; 10 mg/kg, oral administration (10 mg/mL), read-out: Plasma concentration Cmax): 12400 ng/mL
- AUC(0-inf) ([1]; oral administration (10 mg/kg), read-out: Area under the curve AUC0-∞): 95200 ng·h/mL
- TGI ([2]; 4 mg/kg po QD): 81.3%
- Relative tumor volume (x ± S) ([2]; 4 mg/kg po QD): 0.61 ± 0.11
- Tumor volume (x ± S) ([2]; 4 mg/kg po QD): 120 ± 27
- TGI ([2]; 8 mg/kg po QD): 95.2%
- Relative tumor volume (x ± S) ([2]; 8 mg/kg po QD): 0.16 ± 0.03
- Tumor volume (x ± S) ([2]; 8 mg/kg po QD): 31 ± 8
- IC50 [3]: 750 pM
